Holding throughout (test): NCI anticancer screen, dose series, 48 h
Assay [1] deals with RXF 393 renal.
Assay [2] concerns RPMI-8226 leukemia.
The test system of assay [3] is OVCAR-3 ovarian.
The subject of assay [4] is HOP-62 NSCLC.
In assay [5] the test system is IGROV1 ovarian.
Assay [6] deals with SF-268 CNS.
Assay [7] relates to UACC-257 melanoma.
The test system of assay [8] is SNB-75 CNS.

Experimental findings from PubChem BioAssay (NCI) are described below.

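Protocol summary: plate cells (96-well), add compound at 5 concentrations, incubate 48 h, interpolate endpoints linearly. GI50 marks 50% less growth. TGI denotes the concentration required for complete inhibition of growth.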 Bounds are passed on as bounds.

As for `O=C(C[n+]1ccc2ccccc2c1)c1ccc2ccc3ccccc3c2c1`, the TGI was determined as 16.3 µM in assay [1]; 0.646 µM in assay [2]; 17.7 µM in assay [3]; 21.1 µM in assay [4]; 17.2 µM in assay [5]; 19.9 µM in assay [6]. Further, the TGI in assay [7] worked out at 5.64 µM; in assay [8] it was 18.5 µM.

In the case of `CC12CC3OC(=O)C1COC14OC5(C2C1=O)C(O)(CCC1C4CC(O)C2(O)CC=CC(=O)C12C)C(=O)OC35C` (centres undefined), the TGI in assay [2], in assay [3], in assay [5], in assay [6], in assay [7] and in assay [8] was greater than 100 µM each time.

Consider `CC1CC[C@@]2(OC1)OC1C[C@H]3[C@@H]4CC=C5CC(OC6OC(CO)C(OC7OC(CO)C(O)C(OC8OCC(O)C(O)C8O)C7OC7OC(CO)C(O)C(O)C7O)C(O)C6O)CCC5(C)[C@H]4CCC3(C)C1[C@@H]2C` (some centres undefined), for which the TGI amounted to 9.43 µM in assay [1]; 18.4 µM in assay [2]; 9.25 µM in assay [3]; 9.32 µM in assay [4]; 8.06 µM in assay [5]; 9.45 µM in assay [6]. Besides, the TGI in assay [7] is 18 µM; in assay [8], 13.7 µM.

Consider `O=C(/C=C/c1ccccc1)NNC(=O)c1c(Cl)c(Cl)c(Cl)c(Cl)c1-c1nc2ccccc2[nH]1`, for which the TGI in assay [1] is 47.3 µM; in assay [2], 83.2 µM; in assay [3], greater than 100 µM; in assay [4] it was 56.5 µM; in assay [5] it was 45.6 µM; in assay [6], greater than 100 µM. For the same compound, the TGI was 99.1 µM in assay [7] and 59.2 µM in assay [8].

As for `Nc1nc(SCCc2ccccc2)nc2nc3c(c(-c4ccccc4)c12)CCCC3`, the TGI was 81.1 µM in assay [1]; greater than 100 µM in assay [2]; greater than 100 µM in assay [3]; greater than 100 µM in assay [4]; greater than 100 µM in assay [5]; greater than 100 µM in assay [6]. For the same compound, the figures for the TGI in assay [7] and in assay [8] were greater than 100 µM and 83.7 µM, respectively.

Consider `CC(=O)C1=C(C)N(c2ccc(C)cc2)C2(O)C=CC(=O)C3C(=O)N(c4ccccc4)C(=O)C132` (centres undefined), for which the TGI is 54.3 µM in assay [1]; greater than 100 µM in assay [2]; greater than 100 µM in assay [3]; greater than 100 µM in assay [4]; 22.3 µM in assay [5]; greater than 100 µM in assay [6]. In addition, the TGI in assay [7] was 36.5 µM; in assay [8], 50.5 µM.

Regarding `C[C@H](CCC(=O)O)[C@H]1CC[C@@]2(C)[C@@H]3C(=O)C[C@H]4C(C)(C)[C@@H](O)CC[C@]4(C)[C@H]3C(=O)C[C@]12C`, the TGI in assay [1], in assay [2], in assay [3], in assay [4], in assay [5] and in assay [6] was greater than 100 µM each time. The TGI in assay [7] and in assay [8] was greater than 100 µM each time.

Consider `Cc1ccccc1C(=O)N/N=C/c1ccc(Sc2nccn2C)c([N+](=O)[O-])c1`, for which the TGI in assay [1], in assay [2], in assay [3], in assay [4], in assay [5] and in assay [6] was greater than 100 µM each time. Further, the TGI in assay [7] and in assay [8] was greater than 100 µM in each case.

On to `NCCSC(c1ccccc1)c1ccccc1`, for which the TGI is 39.8 µM in assay [1]; 37.4 µM in assay [2]; 40.6 µM in assay [3]; 33.7 µM in assay [4]; 27.8 µM in assay [5]; greater than 100 µM in assay [6]. Moreover, the TGI in assay [7] amounted to 30 µM; in assay [8], 79.9 µM.

Regarding `COc1ccc(C(=O)/C=C/c2cccc([N+](=O)[O-])c2)c(OC)c1`, the GI50 in assay [1] was 1.13 µM; in assay [2], 1.09 µM; in assay [3], 1.72 µM; in assay [4], 1.8 µM; in assay [6] it was 1.62 µM; in assay [7] it was greater than 50 µM. Also, the GI50 in assay [8] was 1.61 µM. The TGI in assay [1] is 2.36 µM; in assay [2], 3.14 µM; in assay [3] it was greater than 50 µM; in assay [4], greater than 50 µM; in assay [6], greater than 50 µM; in assay [7] it was greater than 50 µM. Moreover, the TGI in assay [8] was greater than 50 µM.

Consider `COc1nc(C#CC2(O)CCCCC2)nc(OC)n1`, for which the TGI in assay [1] is 27 µM; in assay [2], 10.5 µM; in assay [3], 20.4 µM; in assay [4] it was 91 µM; in assay [5] it was 23.1 µM; in assay [6], 40.7 µM. Moreover, the TGI is 31.7 µM in assay [7] and 40.3 µM in assay [8].

Consider `Cc1c(N2C(=O)CS(=O)(=O)C2c2cccc(Oc3ccccc3)c2)c(=O)n(-c2ccccc2)n1C` (centres undefined), for which the TGI in assay [1] was 79.3 µM; in assay [2] it was 74.4 µM; in assay [3], greater than 100 µM; in assay [4] it was greater than 100 µM; in assay [5] it was greater than 100 µM; in assay [6] it was greater than 100 µM. The same compound displayed a TGI in assay [7] greater than 100 µM.

In the case of `NC(=O)c1c(NC(=O)c2ccccn2)sc2c1CCC(=O)C2`, the GI50 in assay [1] was 3.53 µM; in assay [3], 3.25 µM; in assay [4] it was greater than 100 µM; in assay [5] it was 3.24 µM; in assay [6], 3.49 µM. Besides, the TGI was greater than 100 µM in assay [1]; 45.7 µM in assay [3]; greater than 100 µM in assay [4]; greater than 100 µM in assay [5]; greater than 100 µM in assay [6].

For `CC1=CC(=O)c2ccccc2C1=O`, the TGI stood at 26.9 µM in assay [1]; 5.39 µM in assay [2]; 23.4 µM in assay [3]; 29.8 µM in assay [4]; 29.2 µM in assay [5]; 22.2 µM in assay [6]. Moreover, the values for the TGI in assay [7] and in assay [8] were 9.08 µM and 22.1 µM, respectively.

As to `CCN(CC(=O)O)C(=O)c1cccnc1`, the TGI in assay [1], in assay [3], in assay [4], in assay [5], in assay [6] and in assay [7] was greater than 100 µM each time. This compound also came in with a TGI in assay [8] greater than 100 µM.
